Laboratory results taken from BindingDB's records for patent US11912703 (Bristol Myers Squibb, 2024).
pIC50: −log10 of the molar value.

Legend:
Assay in all cases: TLR7/8/9 Inhibition Reporter Assays
[1] = target: T1, Toll-like receptor 7 (Homo sapiens, UniProt Q9NYK1)
T1 sequence (Q9NYK1 whole entry): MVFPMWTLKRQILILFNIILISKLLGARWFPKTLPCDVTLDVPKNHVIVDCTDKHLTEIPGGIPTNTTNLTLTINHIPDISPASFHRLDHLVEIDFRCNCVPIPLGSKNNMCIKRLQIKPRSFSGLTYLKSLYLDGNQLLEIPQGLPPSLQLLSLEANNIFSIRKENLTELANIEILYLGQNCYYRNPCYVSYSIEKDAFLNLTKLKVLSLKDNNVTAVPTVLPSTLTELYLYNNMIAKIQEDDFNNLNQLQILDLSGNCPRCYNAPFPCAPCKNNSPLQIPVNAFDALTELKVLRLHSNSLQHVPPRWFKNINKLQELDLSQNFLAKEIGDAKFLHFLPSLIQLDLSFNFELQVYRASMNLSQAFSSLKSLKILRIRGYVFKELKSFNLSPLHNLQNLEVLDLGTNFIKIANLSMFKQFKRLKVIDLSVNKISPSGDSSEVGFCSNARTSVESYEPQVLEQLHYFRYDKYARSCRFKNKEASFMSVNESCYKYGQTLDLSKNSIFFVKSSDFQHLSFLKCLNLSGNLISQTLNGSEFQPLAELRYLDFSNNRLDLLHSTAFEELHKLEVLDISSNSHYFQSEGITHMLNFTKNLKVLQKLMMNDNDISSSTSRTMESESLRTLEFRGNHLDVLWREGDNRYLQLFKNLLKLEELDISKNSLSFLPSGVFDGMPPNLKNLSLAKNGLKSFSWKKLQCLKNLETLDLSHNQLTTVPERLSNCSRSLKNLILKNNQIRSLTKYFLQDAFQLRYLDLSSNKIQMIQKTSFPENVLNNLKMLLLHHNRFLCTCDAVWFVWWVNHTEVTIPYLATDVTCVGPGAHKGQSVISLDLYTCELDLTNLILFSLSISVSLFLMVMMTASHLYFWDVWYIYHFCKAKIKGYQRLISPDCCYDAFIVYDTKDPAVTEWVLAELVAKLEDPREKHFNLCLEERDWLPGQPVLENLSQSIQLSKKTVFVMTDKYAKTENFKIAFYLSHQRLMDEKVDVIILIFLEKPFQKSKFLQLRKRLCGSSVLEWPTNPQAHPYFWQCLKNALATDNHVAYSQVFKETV
Protocol: (§1) HEK-Blue-cells (Invivogen) overexpressing human TLR7, TLR8 or TLR9 receptors were used for screening inhibitors of these receptors using an inducible SEAP (secreted embryonic alkaline phosphatase) reporter gene under the control of the IFN-β minimal promoter fused to five NF-κB and AP-1-binding sites. Briefly, cells are seeded into Greiner 384 well plates (15000 cells per well for TLR7, 20,000 for TLR8 and 25,000 for TLR9) and then treated with test compounds in DMSO to yield a final dose response concentration range of 0.05 nM-50 μM. […] After a 22 hour incubation at 37 C., 500 CO2, SEAP levels are determined with the addition of HEK-Blue Detection reagent (Invivogen), a cell culture medium that allows for detection of SEAP, according to manufacturer's specifications. The percent inhibition is determined as the 00 reduction in the HEK-Blue signal present in wells treated with agonist plus DMSO alone compared to wells treated with a known inhibitor.

[2] = target: T2, Toll-like receptor 8 (Homo sapiens, UniProt Q9NR97)
T2 sequence (Q9NR97 whole entry): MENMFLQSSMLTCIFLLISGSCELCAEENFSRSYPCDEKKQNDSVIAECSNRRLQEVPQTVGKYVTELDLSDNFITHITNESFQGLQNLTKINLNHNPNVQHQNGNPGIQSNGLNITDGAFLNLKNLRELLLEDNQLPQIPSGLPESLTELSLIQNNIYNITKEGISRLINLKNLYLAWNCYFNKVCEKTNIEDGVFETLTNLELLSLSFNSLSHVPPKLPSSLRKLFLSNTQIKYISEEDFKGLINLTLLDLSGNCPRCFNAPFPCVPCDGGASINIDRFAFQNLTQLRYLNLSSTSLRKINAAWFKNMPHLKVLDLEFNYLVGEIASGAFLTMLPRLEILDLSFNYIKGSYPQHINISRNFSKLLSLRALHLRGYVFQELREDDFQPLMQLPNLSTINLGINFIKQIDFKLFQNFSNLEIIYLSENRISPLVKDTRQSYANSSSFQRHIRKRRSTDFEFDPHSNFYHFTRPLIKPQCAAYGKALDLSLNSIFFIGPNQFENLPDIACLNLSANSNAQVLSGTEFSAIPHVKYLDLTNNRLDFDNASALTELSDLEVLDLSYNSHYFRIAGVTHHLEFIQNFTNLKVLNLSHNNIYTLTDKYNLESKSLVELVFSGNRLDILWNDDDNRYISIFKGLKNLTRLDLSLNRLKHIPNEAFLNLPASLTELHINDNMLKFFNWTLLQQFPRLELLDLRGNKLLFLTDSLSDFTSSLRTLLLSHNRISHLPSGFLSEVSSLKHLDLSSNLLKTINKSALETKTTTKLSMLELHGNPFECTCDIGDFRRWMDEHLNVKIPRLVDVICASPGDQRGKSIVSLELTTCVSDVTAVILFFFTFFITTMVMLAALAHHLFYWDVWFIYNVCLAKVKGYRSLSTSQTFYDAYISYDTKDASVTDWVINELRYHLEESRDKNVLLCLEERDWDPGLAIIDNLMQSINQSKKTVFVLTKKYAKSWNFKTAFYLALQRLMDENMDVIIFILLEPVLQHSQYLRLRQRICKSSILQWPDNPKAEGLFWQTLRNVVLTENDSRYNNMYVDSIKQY
Protocol: as §1

[3] = target: T3, Toll-like receptor 9 (Homo sapiens, UniProt Q9NR96)
T3 sequence (Q9NR96 whole entry): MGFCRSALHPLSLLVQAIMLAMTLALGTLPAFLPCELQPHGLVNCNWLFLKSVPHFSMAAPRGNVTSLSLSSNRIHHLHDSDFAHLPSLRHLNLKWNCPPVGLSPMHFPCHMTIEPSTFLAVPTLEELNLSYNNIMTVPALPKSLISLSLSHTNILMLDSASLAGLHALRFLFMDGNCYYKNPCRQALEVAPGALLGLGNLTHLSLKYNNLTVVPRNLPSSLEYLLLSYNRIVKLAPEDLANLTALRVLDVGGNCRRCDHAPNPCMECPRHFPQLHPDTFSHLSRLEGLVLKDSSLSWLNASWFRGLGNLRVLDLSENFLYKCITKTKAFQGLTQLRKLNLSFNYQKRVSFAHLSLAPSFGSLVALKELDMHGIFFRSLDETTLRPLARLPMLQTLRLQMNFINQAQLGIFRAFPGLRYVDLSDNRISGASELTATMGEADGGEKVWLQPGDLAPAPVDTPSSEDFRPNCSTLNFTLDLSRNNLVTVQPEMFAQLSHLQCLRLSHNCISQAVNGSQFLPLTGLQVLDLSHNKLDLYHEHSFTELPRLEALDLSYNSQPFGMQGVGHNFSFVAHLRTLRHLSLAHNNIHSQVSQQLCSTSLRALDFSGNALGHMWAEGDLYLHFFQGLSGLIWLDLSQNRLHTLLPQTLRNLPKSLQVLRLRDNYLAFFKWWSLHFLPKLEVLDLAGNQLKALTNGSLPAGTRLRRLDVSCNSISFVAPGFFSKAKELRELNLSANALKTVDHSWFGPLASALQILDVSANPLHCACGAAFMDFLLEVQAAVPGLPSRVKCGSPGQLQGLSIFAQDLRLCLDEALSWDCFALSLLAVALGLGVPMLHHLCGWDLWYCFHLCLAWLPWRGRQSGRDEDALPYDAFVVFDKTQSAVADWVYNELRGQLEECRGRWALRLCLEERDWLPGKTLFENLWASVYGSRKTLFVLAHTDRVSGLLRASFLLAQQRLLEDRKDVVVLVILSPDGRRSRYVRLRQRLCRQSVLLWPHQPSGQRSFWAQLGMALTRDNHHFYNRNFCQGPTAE
Protocol: as §1

| pIC50 [1] | pIC50 [2] | pIC50 [3] | Compound |
| --- | --- | --- | --- |
| 7.59 | 7.64 | 5.69 | Cc1c(-c2[nH]c3cnc(C4CCC(N5CC(CO)(CO)C5)CC4)c(F)c3c2C(C)C)cn2ncnc2c1C (configuration not stated) [US11912703, Example 266] |
| 7.57 | 8.07 | 5.54 | CNC(=O)CN1CCN(c2cc3c(C(C)C)c(-c4cc(OC)c5ncnn5c4)[nH]c3cn2)CC1 [US11912703, Example 288] |
| 8.43 | 7.24 | 4.85 | CNCC(=O)N1CCN(c2cc3c(C(C)C)c(-c4cc(OC)c5ncnn5c4)[nH]c3cn2)CC1 [US11912703, Example 289] |
| 7.72 | 7.92 | < 4.30 | COc1cc(-c2[nH]c3cnc(N4CCN(C5COC5)CC4)cc3c2C(C)C)cn2ncnc12 [US11912703, Example 303] |
